Assay results as given in the supplement of paper PMC5908809.

What was measured:
Assay in all cases: relative IC50 (inflection point of fitted viability curve, relative to fitted max inhibition); higher = less sensitive
Details in all cases: 72 h
SNK-6 (IL-2 2.5 ng/mL) = system: SNK-6 (IL-2 2.5 ng/mL)
Procedure: (§1)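 Drug sensitivity and resistance testing: 5 concentrations over a 10,000-fold range, 72 h at 37 °C, viability by CellTiter-Glo normalised to DMSO and benzethonium chloride controls. IC50 is the inflection point of a logistic fit (min fixed at 0, max fitted), so it is relative to the fitted maximal inhibition. Kept only where fitted max inhibition is at least 50%.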

KAI3 (IL-2 2.5 ng/mL) = system: KAI3 (IL-2 2.5 ng/mL)
Procedure: as §1

DERL-7 (IL-2 2.5 ng/mL) = system: DERL-7 (IL-2 2.5 ng/mL)
Procedure: as §1

NK-92 (IL-2 2.5 ng/mL) = system: NK-92 (IL-2 2.5 ng/mL)
Procedure: as §1

IMC-1 (IL-2 20 ng/mL) = system: IMC-1 (IL-2 20 ng/mL)
Procedure: as §1

KHYG-1 (IL-2 2.5 ng/mL) = system: KHYG-1 (IL-2 2.5 ng/mL)
Procedure: as §1

NK-YS (IL-2 2.5 ng/mL) = system: NK-YS (IL-2 2.5 ng/mL)
Procedure: as §1

YT (IL-2 2.5 ng/mL) = system: YT (IL-2 2.5 ng/mL)
Procedure: as §1

NKL (IL-2 2.5 ng/mL) = system: NKL (IL-2 2.5 ng/mL)
Procedure: as §1

| Compound | relative IC50 (SNK-6 (IL-2 2.5 ng/mL)) | relative IC50 (KAI3 (IL-2 2.5 ng/mL)) | relative IC50 (DERL-7 (IL-2 2.5 ng/mL)) | relative IC50 (NK-92 (IL-2 2.5 ng/mL)) | relative IC50 (IMC-1 (IL-2 20 ng/mL)) | relative IC50 (KHYG-1 (IL-2 2.5 ng/mL)) | relative IC50 (NK-YS (IL-2 2.5 ng/mL)) | relative IC50 (YT (IL-2 2.5 ng/mL)) | relative IC50 (NKL (IL-2 2.5 ng/mL)) |
| --- | --- | --- | --- | --- | --- | --- | --- | --- | --- |
| CS(=O)(=O)CCNCc1ccc(-c2ccc3ncnc(Nc4ccc(OCc5cccc(F)c5)c(Cl)c4)c3c2)o1 [Lapatinib] | > 1000 nM |  |  |  |  |  |  |  |  |
| CCc1c2c(nc3ccc(OC(=O)N4CCC(N5CCCCC5)CC4)cc13)-c1cc3c(c(=O)n1C2)COC(=O)[C@]3(O)CC [Irinotecan] | 260 nM | 146 nM | 597 nM | 140 nM | 347 nM | 152 nM | 282 nM | 577 nM | 73 nM |
| CO[C@H]1C[C@@H]2CC[C@@H](C)[C@@](O)(O2)C(=O)C(=O)N2CCCC[C@H]2C(=O)O[C@H]([C@H](C)C[C@@H]2CC[C@@H](OC(=O)C(C)(CO)CO)[C@H](OC)C2)CC(=O)[C@H](C)/C=C(\C)[C@@H](O)[C@@H](OC)C(=O)[C@H](C)C[C@H](C)/C=C/C=C/C=C/1C [Temsirolimus] | 0.26 nM | 0.5 nM | 0.57 nM |  |  | 1.32 nM | 0.31 nM | 0.61 nM | 0.09 nM |
| OC[C@H]1O[C@@H](n2cnc3c2N=CNC[C@H]3O)C[C@@H]1O [Pentostatin] |  | > 10000 nM |  |  |  |  |  |  | > 10000 nM |
| CC[C@]1(O)C[C@@H]2CN(CCc3c([nH]c4ccccc34)[C@@](C(=O)OC)(c3cc4c(cc3OC)N(C)[C@H]3[C@@](O)(C(=O)OC)[C@H](OC(C)=O)[C@]5(CC)C=CCN6CC[C@]43[C@@H]65)C2)C1 [Vinblastine] | 5.22 nM | 9.24 nM | 3.3 nM | 7.82 nM | 3.57 nM | 3.44 nM | 6.11 nM | 4.62 nM | 3.72 nM |
| COc1ncc(-c2ccc3nccc(-c4ccnnc4)c3c2)cc1NS(=O)(=O)c1ccc(F)cc1F [Omipalisib] | 101 nM | 11.4 nM | 11.1 nM | 11.2 nM |  | 114 nM | 39.5 nM | 29 nM | 57.5 nM |
| N#CC(c1ccnc(OCc2ccc(CN3CCOCC3)cc2)n1)c1nc2ccccc2s1 (stereo unspecified) [Bentamapimod] |  |  | 1440 nM |  | 2230 nM | 1690 nM |  | 1590 nM | 1810 nM |
| O=C(O)c1ccc(Nc2ncc3c(n2)-c2ccc(Cl)cc2C(c2c(F)cccc2F)=NC3)cc1 [MLN-8054] | 73.6 nM | 291 nM | 763 nM | 563 nM | 1540 nM | 259 nM | 125 nM | 190 nM | 107 nM |
| CCCOc1ccn2c(C(C)=O)cc(-c3ccccc3S(C)(=O)=O)c2c1 [GSK2801] |  |  |  |  | > 10000 nM |  |  |  |  |
| Cc1cc(C(=O)NOCCO)c(Nc2ccc(I)cc2F)n(C)c1=O [AZD-8330] | > 10000 nM |  |  | > 10000 nM |  | 13 nM |  |  | 10.2 nM |
| CCN1CCN(Cc2ccc(-c3cc4c(N[C@H](C)c5ccccc5)ncnc4[nH]3)cc2)CC1 [NVP-AEE788] |  |  |  | 374 nM |  |  |  |  |  |
| O=C(O)c1ccc(O)c2ncccc12 [IOX-1] | 20200 nM | 17000 nM | 21600 nM | 26400 nM | 37400 nM | 28400 nM | 32200 nM | 32700 nM | 29100 nM |
| CCc1nc(-c2cccc(C)c2)c(-c2ccnc(NC(=O)c3ccccc3)c2)s1 [TAK-715] | 3250 nM |  |  | 2170 nM |  |  | 1570 nM |  |  |
| CCN1CCN(c2ccc(Nc3cc(N(C)C(=O)Nc4c(Cl)c(OC)cc(OC)c4Cl)ncn3)cc2)CC1 [NVP-BGJ398] | > 1000 nM |  |  |  |  |  |  |  |  |
| O=C(c1ccc(F)c(F)c1Nc1ccc(I)cc1F)N1CC(O)([C@@H]2CCCCN2)C1 [Cobimetinib] | > 1000 nM |  |  |  |  | 123 nM |  |  | 51.6 nM |
| CNC(=O)c1cccc2cc(Oc3ccnc4cc(OCC5(N)CC5)c(OC)cc34)ccc12 [Lucitanib] | 3720 nM |  |  | 1910 nM |  | 2000 nM | 2000 nM | 3440 nM |  |
| CN(C)c1nc(N(C)C)nc(N(C)C)n1 [Altretamine] |  |  |  | > 10000 nM |  | > 10000 nM |  | > 10000 nM |  |
| C#Cc1cccc(Nc2ncnc3cc4c(cc23)OCCOCCOCCO4)c1 [Icotinib] |  |  |  | 1970 nM |  |  |  |  |  |
| COc1cc(F)c(F)c(Nc2ccc(I)cc2F)c1NS(=O)(=O)C1(C[C@H](O)CO)CC1 [Refametinib] |  |  | 194 nM |  |  | 147 nM |  |  | 91.9 nM |
| Cn1cnc2c(F)c(Nc3ccc(Br)cc3Cl)c(C(=O)NOCCO)cc21 [Selumetinib] | > 10000 nM |  | 136 nM |  |  | 606 nM |  |  | 436 nM |
| Cn1c(=O)c(F)c(Nc2ccc(I)cc2F)c2c(=O)n(C[C@@H](O)CO)cnc21 [TAK-733] |  |  |  |  |  | 22.5 nM |  |  | 12.6 nM |
| Oc1ncc(N(CCCl)CCCl)c(O)n1 [Uracil mustard] | > 10000 nM |  |  |  |  |  |  |  |  |
